{"source": "paper PMC6019444", "about": "“Activation of the Immune-Metabolic Receptor GPR84 Enhances Inflammation and Phagocytosis in Macrophages” (Frontiers in Immunology, 2018)", "target": "GPR84 (Mus musculus, UniProt Q8CIM5)", "sequence (Q8CIM5 whole entry)": "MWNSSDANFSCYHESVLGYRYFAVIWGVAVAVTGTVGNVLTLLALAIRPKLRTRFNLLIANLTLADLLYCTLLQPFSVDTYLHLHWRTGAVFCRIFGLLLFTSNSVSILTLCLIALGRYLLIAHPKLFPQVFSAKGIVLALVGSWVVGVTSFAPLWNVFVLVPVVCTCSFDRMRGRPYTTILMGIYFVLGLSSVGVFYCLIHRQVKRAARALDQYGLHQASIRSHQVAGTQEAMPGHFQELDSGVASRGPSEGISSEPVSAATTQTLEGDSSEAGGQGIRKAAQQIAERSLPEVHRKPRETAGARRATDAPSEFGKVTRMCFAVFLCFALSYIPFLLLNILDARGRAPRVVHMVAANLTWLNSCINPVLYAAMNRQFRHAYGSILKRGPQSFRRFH", "assay": "real-time cell impedance in LPS-primed mouse BMDMs, WT versus GPR84-/-", "type": "cell-based", "data": [{"smiles": "CCCCCCCCNc1cc(=O)[nH]c(=O)[nH]1", "note": "[6-OAU, 6-(octylamino) pyrimidine-2,4(1H,3H)-dione]", "values": [{"measurement": "real-time cell impedance in LPS-primed mouse BMDMs, WT versus GPR84-/-", "result": "no response was observed when adding any dose of 6-OAU to GPR84^−/− cells"}]}]}
